# Legend:
# [1] = Solubility study of rapamycin in DMSO/H2O mixtures; format: physicochemical
# Procedure: Une étude de solubilité a été réalisée sur des mélanges DMSO/H2O, de 40% à 100% (v/v) en DMSO et des concentrations en rapamycine comprises entre 0,4 et 4 mg/mL.
# L'évaluation de la solubilisation de rapamycine en fonction de différentes concentrations de DMSO est présentée au Tableau 3 ci-dessous : Tableau 3 : Evaluation de la solubilisation de rapamycine en fonction de différentes concentrations de DMSO.
# A la suite de ces résultats, une nouvelle étude a été lancée sur un intervalle plus restreint en DMSO, avec 3 niveaux de concentrations (70%; 85%; 100%) et les 3 mêmes niveaux de rapamycine (0,4; 1; 4 mg/mL) (Tableau 4). Tableau 4 : Evaluation de la solubilisation de rapamycine dans des concentrations de DMSO à 70%, 85% et 100%.
# [2] = Perfusion circuit without organ: rapamycin concentration in whole blood perfusate; format: in vitro ADME, humain; conditions: whole human blood perfusate at 37°C, no organ; theoretical target 180 ng/mL; 4 experiments
# Procedure: Une machine de perfusion hépatique a été utilisée avec du perfusat constitué de sang total humain maintenu à 37°C. La rapamycine a été injectée directement dans le circuit de perfusion. Des prélèvements étaient réalisés à intervalles réguliers pour doser la molécule. L'expérience a été réalisée 4 fois, l'objectif étant de valider la concentration cible théorique de 180 ng/mL définie à partir des études précédentes d'efficacité et de toxicité.
# hépatocytes = experiment: Defatting effect of rapamycin on hepatocyte cultures (Example 2); format: cell-based; conditions: rapamycine 200nM, hepatocytes, read-out: diminution du taux de triglycérides intracellulaires par rapport au contrôle
# Procedure: (§1) La rapamycine a été évaluée sur des cultures d'hépatocytes et sur tissus hépatiques (tranches de foies permettant de garder la structure hépatique). Pour une concentration de rapamycine à 200nM, il était observé une diminution de 19% du taux de triglycérides intracellulaires par rapport au contrôle dans les hépatocytes et de 38% dans les tissus hépatiques. Ces résultats répétés plusieurs fois ont permis de confirmer la preuve de concept de l'effet de la rapamycine sur l'effet « dégraissant ».
# [3] = Perfusion circuit with pig liver: pharmacokinetics of rapamycin; format: in vitro ADME, cochon; conditions: pig liver on perfusion machine
# Procedure: Le même protocole de perfusion a été utilisé mais avec un foie animal. Celui-ci a été prélèvé chez un cochon en arrêt cardiaque puis préservé dans de la glace. Il a ensuite été mis sur machine de perfusion, initialement en hypothermie (4°C) pendant 2 heures puis à 37°C pendant 12 heures avec une phase de réchauffement intermédiaire (sub normothermie, 21°C). La rapamycine était injectée dans le circuit 2 heures après le début de la phase de normothermie. Neuf expériences ont été réalisées. L'objectif était d'avoir une étude pharmacocinétique de la rapamycine.
# tissus hépatiques = experiment: Defatting effect of rapamycin on hepatic tissues, liver slices (Example 2); format: cell-based; conditions: rapamycine 200nM, read-out: diminution du taux de triglycérides intracellulaires par rapport au contrôle
# Procedure: as §1
# [4] = in DMSO (Simamora P et al., 2001); cited from earlier work
# foies humains = experiment: Perfusion circuit with steatotic human livers: intracellular triglycerides and pharmacokinetics; conditions: for diminution du taux de triglycérides intra cellulaires: steatosis > 50%
# Excerpt: De la même manière, l'expérience a été réalisée avec deux foies humains jugés non transplantables et utilisés à visée scientifique après autorisation de l'Agence de Biomédecine. […] L'évaluation de la viabilité de ces deux organes ont été faites selon des critères validés en pratique clinique. […] Pour ce faire, les triglycérides intra cellulaires ont été dosés.
compound,measurement,setting,value
"CO[C@H]1C[C@@H]2CC[C@@H](C)[C@@](O)(O2)C(=O)C(=O)N2CCCC[C@H]2C(=O)O[C@H]([C@H](C)C[C@@H]2CC[C@@H](O)[C@H](OC)C2)CC(=O)[C@H](C)/C=C(\C)[C@@H](O)[C@@H](OC)C(=O)[C@H](C)C[C@H](C)/C=C/C=C/C=C/1C [Rapamycine, rapamycine]",Solubilité à température ambiante,"[1]; DMSO/H2O 40 % volumique, [Rapamycine] 0,4 mg/mL",Non (aspect laiteux avec cristaux
same,Solubilité à température ambiante,"[1]; DMSO/H2O 40 % volumique, [Rapamycine] 1 mg/mL",Non (aspect laiteux avec cristaux
same,Solubilité à température ambiante,"[1]; DMSO/H2O 40 % volumique, [Rapamycine] 4 mg/mL",Non (aspect laiteux avec cristaux
same,Solubilité à température ambiante,"[1]; DMSO/H2O 60 % volumique, [Rapamycine] 0,4 mg/mL",Oui
same,Solubilité à température ambiante,"[1]; DMSO/H2O 60 % volumique, [Rapamycine] 1 mg/mL",Oui
same,Solubilité à température ambiante,"[1]; DMSO/H2O 60 % volumique, [Rapamycine] 4 mg/mL",Non (aspect laiteux avec cristaux
same,Solubilité à température ambiante,"[1]; DMSO/H2O 80 % volumique, [Rapamycine] 0,4 mg/mL",Oui
same,Solubilité à température ambiante,"[1]; DMSO/H2O 80 % volumique, [Rapamycine] 1 mg/mL",Oui
same,Solubilité à température ambiante,"[1]; DMSO/H2O 80 % volumique, [Rapamycine] 4 mg/mL",Oui
same,Solubilité à température ambiante,"[1]; DMSO/H2O 100 % volumique, [Rapamycine] 0,4 mg/mL",Oui
same,Solubilité à température ambiante,"[1]; DMSO/H2O 100 % volumique, [Rapamycine] 1 mg/mL",Oui
same,Solubilité à température ambiante,"[1]; DMSO/H2O 100 % volumique, [Rapamycine] 4 mg/mL",Oui
same,Solubilité à température ambiante,"[1]; second study (Tableau 4), DMSO/H2O 70 % volumique, [Rapamycine] 0,4 mg/mL",Oui
same,Solubilité à température ambiante,"[1]; second study (Tableau 4), DMSO/H2O 70 % volumique, [Rapamycine] 1 mg/mL",Oui
same,Solubilité à température ambiante,"[1]; second study (Tableau 4), DMSO/H2O 70 % volumique, [Rapamycine] 4 mg/mL",Oui
same,Solubilité à température ambiante,"[1]; second study (Tableau 4), DMSO/H2O 85 % volumique, [Rapamycine] 0,4 mg/mL",Oui
same,Solubilité à température ambiante,"[1]; second study (Tableau 4), DMSO/H2O 85 % volumique, [Rapamycine] 1 mg/mL",Oui
same,Solubilité à température ambiante,"[1]; second study (Tableau 4), DMSO/H2O 85 % volumique, [Rapamycine] 4 mg/mL",Oui
same,Solubilité à température ambiante,"[1]; second study (Tableau 4), DMSO/H2O 100 % volumique, [Rapamycine] 0,4 mg/mL",Oui
same,Solubilité à température ambiante,"[1]; second study (Tableau 4), DMSO/H2O 100 % volumique, [Rapamycine] 1 mg/mL",Oui
same,Solubilité à température ambiante,"[1]; second study (Tableau 4), DMSO/H2O 100 % volumique, [Rapamycine] 4 mg/mL",Oui
same,concentration moyenne de rapamycine,[2],150 ± 30 ng/mL
same,inhibition at 0.2 µM,hépatocytes,19%
same,time after injection from which rapamycin is found in bile,"[3]; bile, increases during perfusion",1 heure
same,Tmax,"[3]; whole blood and plasma, 37°C, read-out: pic de concentration (time after injection) (converted)",5 min
same,inhibition at 0.2 µM,tissus hépatiques,38%
same,solubilité,[4],> 250 mg/mL
same,diminution du taux de triglycérides intra cellulaires,"foies humains; foie N°1, 9 heures after injection of rapamycin",39%
same,diminution du taux de triglycérides intra cellulaires,foies humains; foie N°2,31%
same,pharmacocinétique,foies humains; human livers on perfusion machine,identique à celle observée lors de la perfusion des foies de cochon

# Source: patent EP4574149A1, “COMPOSITION OF RAPAMYCIN, DIMETHYLSULPHOXIDE AND WATER FOR USE IN THE TREATMENT OF FATTY LIVER DISEASE” (Assistance Publique - Hôpitaux de Paris, priority 2023, dated 2025)
